Reference: BindingDB's records for doi:10.1074/jbc.M113.480210 (University of Copenhagen, 2013)

How the values were obtained:
Assay in all cases: Two-electrode Voltage Clamp Electrophysiology
Conditions in all cases: pH 7.4; 25 °C
[1] = biological target: Glutamate receptor ionotropic, NMDA 1 [F484A,T518L]/3B (Rattus norvegicus, UniProt P35439+Q8VHN2, F484A/T518L)
Protocol: (§1) Two-electrode voltage clamp (TEVC) recordings were performed on Xenopus oocytes at room temperature 3-6 days postinjection using an OC-725C TEVC amplifier (Warner Instruments, Hamden, CT). […] Voltage and current electrodes were filled with 0.3 and 3 M KCl, respectively. During recordings, oocytes were placed in a recording chamber and perfused with the extracellular recording solution comprised of 90 mM NaCl, 1 mM KCl, 10 mM HEPES, 0.5 mM BaCl2, and 0.01 mM EDTA (pH 7.4 with NaOH). Current responses were recorded at a holding potential of -40 and -60 mV for GluN1/N2 and GluN1/N3 receptors, respectively. Compounds were dissolved in extracellular recording solution and applied to the oocyte by gravity-driven perfusion using a computer-controlled 8-modular valve positioner (Digital MVP, Hamilton, Reno, NV).

[2] = biological target: Glutamate receptor ionotropic, NMDA 1 [F484A,T518L]/3A (Rattus norvegicus, UniProt P35439+Q9R1M7, F484A/T518L)
Protocol: as §1

[3] = biological target: Glutamate receptor ionotropic, NMDA 2A (Rat, UniProt Q00959+Q62683)
Protocol: as §1

Glutamate receptor 1 = Glutamate receptor 1 (Rattus norvegicus, UniProt P19490)
Protocol: as §1

[4] = biological target: Glutamate receptor ionotropic, NMDA 2B (Rat, UniProt Q00960+Q62683)
Protocol: as §1

[5] = biological target: Glutamate receptor ionotropic, NMDA 2D (Rat, UniProt Q62645+Q62683)
Protocol: as §1

[6] = biological target: Glutamate receptor ionotropic, NMDA 2C (Rat, UniProt Q00961+Q62683)
Protocol: as §1

Chain of Glutamate receptor ionotropic, NMDA 2A (Q00959 whole entry, other chains not shown): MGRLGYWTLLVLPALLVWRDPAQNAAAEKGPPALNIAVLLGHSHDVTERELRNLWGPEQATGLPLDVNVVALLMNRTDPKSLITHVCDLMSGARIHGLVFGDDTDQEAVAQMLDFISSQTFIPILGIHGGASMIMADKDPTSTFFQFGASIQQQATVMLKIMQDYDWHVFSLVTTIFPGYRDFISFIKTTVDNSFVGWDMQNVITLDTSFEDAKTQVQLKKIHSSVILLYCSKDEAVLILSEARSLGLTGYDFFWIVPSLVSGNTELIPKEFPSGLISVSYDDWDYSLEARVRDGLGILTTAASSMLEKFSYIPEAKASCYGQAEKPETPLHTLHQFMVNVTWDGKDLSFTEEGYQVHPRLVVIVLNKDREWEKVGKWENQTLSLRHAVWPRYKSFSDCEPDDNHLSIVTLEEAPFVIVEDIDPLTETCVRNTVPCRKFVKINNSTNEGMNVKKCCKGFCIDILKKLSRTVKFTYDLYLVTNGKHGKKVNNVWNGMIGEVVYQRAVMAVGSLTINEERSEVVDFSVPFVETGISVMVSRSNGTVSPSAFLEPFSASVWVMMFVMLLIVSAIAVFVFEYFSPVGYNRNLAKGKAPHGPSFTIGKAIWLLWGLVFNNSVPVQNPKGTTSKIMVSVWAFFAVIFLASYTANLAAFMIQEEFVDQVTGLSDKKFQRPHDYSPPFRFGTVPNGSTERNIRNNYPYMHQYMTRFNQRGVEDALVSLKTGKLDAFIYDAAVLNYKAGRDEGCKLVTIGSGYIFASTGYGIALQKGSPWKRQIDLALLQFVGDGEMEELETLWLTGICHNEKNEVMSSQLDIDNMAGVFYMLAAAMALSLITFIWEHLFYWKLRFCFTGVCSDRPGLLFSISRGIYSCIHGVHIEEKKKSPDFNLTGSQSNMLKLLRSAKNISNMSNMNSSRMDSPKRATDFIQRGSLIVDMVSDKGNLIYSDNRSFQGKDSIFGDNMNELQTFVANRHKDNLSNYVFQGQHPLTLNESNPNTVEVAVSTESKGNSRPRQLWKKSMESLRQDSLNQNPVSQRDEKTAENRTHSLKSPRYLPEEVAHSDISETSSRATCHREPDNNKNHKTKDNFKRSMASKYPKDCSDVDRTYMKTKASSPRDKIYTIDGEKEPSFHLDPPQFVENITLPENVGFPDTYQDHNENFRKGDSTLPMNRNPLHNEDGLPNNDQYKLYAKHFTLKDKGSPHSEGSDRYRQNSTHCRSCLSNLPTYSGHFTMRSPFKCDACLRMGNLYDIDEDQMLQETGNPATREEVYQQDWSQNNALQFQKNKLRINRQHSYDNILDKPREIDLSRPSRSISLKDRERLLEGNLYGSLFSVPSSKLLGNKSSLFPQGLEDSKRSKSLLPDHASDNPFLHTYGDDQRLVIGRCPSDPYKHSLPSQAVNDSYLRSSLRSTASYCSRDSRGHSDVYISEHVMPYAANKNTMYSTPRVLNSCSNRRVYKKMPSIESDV
Chain of Glutamate receptor ionotropic, NMDA 1 [F484A,T518L]/3B (Q8VHN2 25-1002 limits assumed, other chains not shown): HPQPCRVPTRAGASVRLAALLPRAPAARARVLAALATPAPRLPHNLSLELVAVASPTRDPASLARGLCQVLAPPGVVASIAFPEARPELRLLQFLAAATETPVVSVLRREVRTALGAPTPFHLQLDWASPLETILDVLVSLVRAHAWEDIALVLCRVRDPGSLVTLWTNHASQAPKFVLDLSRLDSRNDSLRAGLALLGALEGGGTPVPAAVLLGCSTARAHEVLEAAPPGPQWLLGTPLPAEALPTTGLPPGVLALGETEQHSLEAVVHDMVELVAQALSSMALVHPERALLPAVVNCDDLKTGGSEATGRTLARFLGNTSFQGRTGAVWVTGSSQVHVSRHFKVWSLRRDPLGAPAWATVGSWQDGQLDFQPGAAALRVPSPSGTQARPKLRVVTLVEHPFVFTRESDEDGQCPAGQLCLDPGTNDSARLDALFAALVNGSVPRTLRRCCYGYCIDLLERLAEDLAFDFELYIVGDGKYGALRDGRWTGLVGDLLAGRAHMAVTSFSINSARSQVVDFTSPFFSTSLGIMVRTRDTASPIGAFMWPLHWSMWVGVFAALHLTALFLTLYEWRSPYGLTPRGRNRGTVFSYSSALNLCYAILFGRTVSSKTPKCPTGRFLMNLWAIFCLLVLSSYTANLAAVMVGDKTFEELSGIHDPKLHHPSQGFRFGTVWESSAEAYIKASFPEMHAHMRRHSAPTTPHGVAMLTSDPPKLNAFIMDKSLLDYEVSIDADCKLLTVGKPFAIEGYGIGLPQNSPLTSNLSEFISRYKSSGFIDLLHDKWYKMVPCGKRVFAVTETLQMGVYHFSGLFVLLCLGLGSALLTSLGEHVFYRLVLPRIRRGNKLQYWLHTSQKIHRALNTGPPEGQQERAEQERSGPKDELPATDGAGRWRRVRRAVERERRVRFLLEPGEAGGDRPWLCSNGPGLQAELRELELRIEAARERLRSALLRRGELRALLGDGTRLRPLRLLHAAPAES
Chain of Glutamate receptor ionotropic, NMDA 1 [F484A,T518L]/3A (Q9R1M7 24-1135 limits assumed, other chains not shown): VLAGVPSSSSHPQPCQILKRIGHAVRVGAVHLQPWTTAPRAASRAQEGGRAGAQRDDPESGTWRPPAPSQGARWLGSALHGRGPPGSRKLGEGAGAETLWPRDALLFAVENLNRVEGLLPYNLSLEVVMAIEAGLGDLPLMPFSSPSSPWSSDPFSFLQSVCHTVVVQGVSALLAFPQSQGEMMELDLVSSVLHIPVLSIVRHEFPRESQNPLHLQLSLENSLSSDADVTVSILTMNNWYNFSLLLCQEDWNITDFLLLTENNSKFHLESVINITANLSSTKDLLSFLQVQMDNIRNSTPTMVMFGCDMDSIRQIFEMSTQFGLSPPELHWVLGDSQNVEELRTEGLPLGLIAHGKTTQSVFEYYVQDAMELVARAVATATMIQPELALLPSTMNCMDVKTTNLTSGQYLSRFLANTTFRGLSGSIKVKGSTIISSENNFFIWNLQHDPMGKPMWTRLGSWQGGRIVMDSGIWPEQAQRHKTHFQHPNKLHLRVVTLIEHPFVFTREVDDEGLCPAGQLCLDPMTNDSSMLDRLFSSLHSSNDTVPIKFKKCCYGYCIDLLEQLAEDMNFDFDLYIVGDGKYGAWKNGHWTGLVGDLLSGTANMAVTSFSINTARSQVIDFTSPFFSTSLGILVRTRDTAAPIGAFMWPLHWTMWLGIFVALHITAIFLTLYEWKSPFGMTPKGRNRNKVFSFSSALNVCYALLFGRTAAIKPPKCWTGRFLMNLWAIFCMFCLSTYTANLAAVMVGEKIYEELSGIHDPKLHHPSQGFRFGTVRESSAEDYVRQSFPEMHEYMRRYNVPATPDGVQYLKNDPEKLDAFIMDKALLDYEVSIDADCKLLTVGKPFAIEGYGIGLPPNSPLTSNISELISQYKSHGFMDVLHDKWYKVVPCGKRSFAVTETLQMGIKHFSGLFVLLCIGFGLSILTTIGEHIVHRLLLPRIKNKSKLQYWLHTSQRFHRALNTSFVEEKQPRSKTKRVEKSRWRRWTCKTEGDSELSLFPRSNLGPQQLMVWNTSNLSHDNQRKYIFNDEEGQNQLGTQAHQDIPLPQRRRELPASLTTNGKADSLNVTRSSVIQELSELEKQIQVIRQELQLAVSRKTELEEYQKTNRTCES
Chain of Glutamate receptor 1 (P19490 whole entry): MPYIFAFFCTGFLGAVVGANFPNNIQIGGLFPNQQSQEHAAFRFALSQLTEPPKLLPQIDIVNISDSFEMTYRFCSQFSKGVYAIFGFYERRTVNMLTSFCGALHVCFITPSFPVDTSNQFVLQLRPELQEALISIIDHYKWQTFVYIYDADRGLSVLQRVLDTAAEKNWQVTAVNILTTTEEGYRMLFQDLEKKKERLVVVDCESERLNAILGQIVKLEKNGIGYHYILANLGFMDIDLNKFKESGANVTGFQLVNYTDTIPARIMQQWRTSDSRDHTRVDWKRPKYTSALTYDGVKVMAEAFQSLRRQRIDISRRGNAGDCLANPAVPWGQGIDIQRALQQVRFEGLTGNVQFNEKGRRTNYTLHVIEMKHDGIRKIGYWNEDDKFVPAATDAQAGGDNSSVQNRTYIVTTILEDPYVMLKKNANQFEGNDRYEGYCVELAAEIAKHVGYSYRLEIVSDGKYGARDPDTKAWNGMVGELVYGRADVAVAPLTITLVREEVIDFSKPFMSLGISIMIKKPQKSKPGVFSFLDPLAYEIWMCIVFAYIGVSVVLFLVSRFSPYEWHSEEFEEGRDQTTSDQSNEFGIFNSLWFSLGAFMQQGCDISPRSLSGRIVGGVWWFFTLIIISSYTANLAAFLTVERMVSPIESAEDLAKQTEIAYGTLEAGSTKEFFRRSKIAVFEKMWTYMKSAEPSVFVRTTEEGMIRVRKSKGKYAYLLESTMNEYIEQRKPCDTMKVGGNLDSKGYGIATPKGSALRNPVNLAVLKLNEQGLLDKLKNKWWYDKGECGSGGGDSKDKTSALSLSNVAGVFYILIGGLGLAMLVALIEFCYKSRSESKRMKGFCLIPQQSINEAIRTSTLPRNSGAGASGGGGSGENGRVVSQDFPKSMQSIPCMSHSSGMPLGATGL

| Structure (SMILES) | IC50 [1] | Ki [1] | IC50 [2] | Ki [2] | IC50 [3] | Ki [3] | IC50 (Glutamate receptor 1) | Ki (Glutamate receptor 1) | Ki [4] | Ki [5] | Ki [6] |
| --- | --- | --- | --- | --- | --- | --- | --- | --- | --- | --- | --- |
| O=C(O)c1cc(O)c2c(Cl)cc(Cl)cc2n1 [5,7-Dichlorokynurenic acid (5,7-DCKA)] | > 300000 nM | > 150000 nM | 97000 nM | 35000 nM | 92 nM | 65 nM | – | – | – | – | – |
| O=c1[nH]c2ccccc2n2c(S)nnc12 [1-thioxo-1,2-dihydro-[1,2,4]triazolo[4,3-a]-quinoxalin-4(5H)-one] | – | – | – | – | 770 nM | 560 nM | > 300000 nM | > 180000 nM | > 1300 nM | > 300 nM | > 800 nM |
